# According to PubChem BioAssay (NCI):
#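 A five-concentration, 48-hour dose response in 96-well plates underlies each endpoint, interpolated linearly between surrounding concentrations. Abbreviation: GI50, concentration required for 50% inhibition of growth. TGI is the concentration that stops growth completely.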
# Test system: LOX IMVI melanoma
# Assay: NCI tumour cell line growth inhibition, 48 h
Structure (SMILES),TGI [µM],GI50 [µM]
CC(C)(C)OC(=O)N1N=NC2C1C1CC(OCc3ccccc3)(OCc3ccccc3)C2O1 (stereo not given),33.7,–
O=C1CSC(c2ccc(-c3nc4ccccc4s3)cc2)=N1,26.9,7.48
O=C1C(=O)N(c2cc(Cl)ccc2Cl)C(=O)C(=O)C1c1nc2ccccc2o1,> 100,–
O=C(O)C12CC3(C(=O)O)CC(C(=O)O)(CC(C(=O)O)(C1)C3=O)C2=O,> 100,–
CCC(=O)Nc1ccc(N=NN(C)C)cc1,> 100,–
COc1cc(C2C(C(=O)Nc3cc(F)c(F)cc3F)=C(C)NC(C)=C2C(=O)Nc2cc(F)c(F)cc2F)ccc1O,32.9,–
Cc1cccc(N=C2NC(=O)C(CC(=O)Nc3cccc(C)c3C)S2)c1 (stereo not given),> 100,–
CN(C)CCSc1nccc(-c2cc3ccccc3s2)n1,32.2,–
Cc1nn(C(=O)c2ccc(Cl)cc2)c2c1C(c1ccc(O)cc1)SC(N)=N2 (stereo not given),> 10,–
O=C(O)CSc1n[nH]c(Cc2ccccc2)n1,> 100,–
O=C1C(Cl)=C(Nc2ccccc2O)C(=O)N1Cc1ccccc1,30.1,16.5

# Test system: OVCAR-4 ovarian
# Assay: NCI tumour cell line growth inhibition, 48 h
Structure (SMILES),TGI [µM],GI50 [µM]
Nc1ccc2[nH]cc(CCC(=O)O)c2c1,> 100,–
Cc1cccc(C(C)C)c1NC(=O)C(=O)C(C(=O)c1ccccc1F)C1OC(=O)c2ccccc21 (stereo not given),74.2,–
Cc1ccc(Nc2nnc(-c3ccc4c(c3)OCO4)o2)c(C)c1,> 100,–
Cc1cccc(C)c1NC(=O)C(=O)CC(=O)c1cccc([N+](=O)[O-])c1,> 100,–
Cc1ccc(S(=O)(=O)NC(=O)NC2=NC(C)(C)N(c3ccc(Cl)c(Cl)c3)C(N)=N2)cc1,> 100,–
S=C1SC2=Nc3ccccc3CN2C2=NCCN12,> 100,> 100
CC1=C(c2cc(C(=O)Nc3ccc(Cl)cc3)nc(=S)[nH]2)Sc2ccccc2N1,> 100,–
O=C(O)CN(c1ccccc1)S(=O)(=O)c1ccc([N+](=O)[O-])cc1,> 100,–
CC1=C(C(=O)NNS(=O)(=O)c2ccc(C)cc2)CC(C(=O)NNS(=O)(=O)c2ccc(C)cc2)=C(C)N1,> 100,–
Cc1cc(C)n(-c2nnc3n2N=C(c2ccc(-c4ccccc4)cc2)CS3)n1,> 100,4.12
Clc1cc(Cl)cc(Nc2ccc3cc(OCCCN4CCOCC4)ccc3n2)c1,> 100,3.44
[F][Sn]([F])([c]1ccccc1)[c]1ccccc1,3.39,1.68
N#CC(C(=O)CCC(=O)Nc1cccc(C(F)(F)F)c1)c1ccc(Cl)cc1 (stereo not given),> 100,–
Cc1cc(C(C)(C)C)cc(Cc2cc(C(C)(C)C)cc(Cc3cc(C(C)(C)C)cc(C)c3O)c2O)c1O,20.2,–
COC(=O)/C(=C\c1ccc(N(CCC#N)CCC#N)cc1)NC(=O)c1cc([N+](=O)[O-])ccc1Cl,> 100,–
COC1=C(Br)C(=O)c2nc(C)ccc2C1=O,26.3,–
O=C(CSC(c1ccccc1)c1ccccc1)N/N=C/c1ccco1,6.49,1.73
COc1ccc2c3c(Nc4ccc(/C(C)=N/O)cc4)[nH]c4ccccc4c-3c(N=O)c2c1,68.2,28.4

Structure (SMILES),TGI [µM],GI50 [µM]
N.N.NCCCCCCCCCN.O=C([O-])CC(=O)[O-].O=C([O-])CC(=O)[O-].[Pt+4].[Pt+4],> 100,> 100
CC(=O)OC1C2CCC1C1C2C2(Cl)C(Cl)=C(Cl)C1(Cl)C2(Cl)Cl (stereo not given),59.8,–
CC(C)(C)OC(=O)N1N=NC2C1C1CC(OCc3ccccc3)(OCc3ccccc3)C2O1 (stereo not given),> 100,–
O=C1CSC(c2ccc(-c3nc4ccccc4s3)cc2)=N1,> 100,41.1
O=C1C(=O)N(c2cc(Cl)ccc2Cl)C(=O)C(=O)C1c1nc2ccccc2o1,> 100,–
O=C(O)C12CC3(C(=O)O)CC(C(=O)O)(CC(C(=O)O)(C1)C3=O)C2=O,> 100,–
CCC(=O)Nc1ccc(N=NN(C)C)cc1,> 100,–
C[C@H]1CCC/C=C/[C@@H]2C[C@H](O)C[C@H]2[C@H](O)[C@@H](SCC(O)CO)CC(=O)O1 (stereo not given in full),> 100,4.17
O=S1(=O)OCCOS(=O)(=O)C1Cl,> 100,–
COc1cc(C2C(C(=O)Nc3cc(F)c(F)cc3F)=C(C)NC(C)=C2C(=O)Nc2cc(F)c(F)cc2F)ccc1O,> 100,–
Nc1ccc2nc3n(c2c1)C(=O)c1ccccc1-3,> 100,–
CCOc1ccccc1NC(=O)C(=O)Cc1nc2ccccc2s1,> 100,–
CO/N=C(/C)c1cccc(Nc2cc(-c3ccccc3)nc3ccc(OC)cc23)c1,66.6,20.2
Cc1cccc(N=C2NC(=O)C(CC(=O)Nc3cccc(C)c3C)S2)c1 (stereo not given),> 100,–
CN(C)CCSc1nccc(-c2cc3ccccc3s2)n1,82.2,–
Cc1nn(C(=O)c2ccc(Cl)cc2)c2c1C(c1ccc(O)cc1)SC(N)=N2 (stereo not given),> 10,–
O=C(O)CSc1n[nH]c(Cc2ccccc2)n1,> 100,–
O=C1C(Cl)=C(Nc2ccccc2O)C(=O)N1Cc1ccccc1,> 100,43.1

# Test system: SF-295 CNS
# Assay: NCI tumour cell line growth inhibition, 48 h
Structure (SMILES),TGI [µM],GI50 [µM]
Nc1ccc2[nH]cc(CCC(=O)O)c2c1,> 100,–
Cc1ccc(Nc2nnc(-c3ccc4c(c3)OCO4)o2)c(C)c1,> 100,–
Cc1cccc(C)c1NC(=O)C(=O)CC(=O)c1cccc([N+](=O)[O-])c1,> 100,–
Cc1ccc(S(=O)(=O)NC(=O)NC2=NC(C)(C)N(c3ccc(Cl)c(Cl)c3)C(N)=N2)cc1,> 100,–
S=C1SC2=Nc3ccccc3CN2C2=NCCN12,> 100,83.5
CC1=C(c2cc(C(=O)Nc3ccc(Cl)cc3)nc(=S)[nH]2)Sc2ccccc2N1,> 100,–
O=C(O)CN(c1ccccc1)S(=O)(=O)c1ccc([N+](=O)[O-])cc1,> 100,–
CC1=C(C(=O)NNS(=O)(=O)c2ccc(C)cc2)CC(C(=O)NNS(=O)(=O)c2ccc(C)cc2)=C(C)N1,> 100,–
Cc1cc(C)n(-c2nnc3n2N=C(c2ccc(-c4ccccc4)cc2)CS3)n1,7.63,2.64
Clc1cc(Cl)cc(Nc2ccc3cc(OCCCN4CCOCC4)ccc3n2)c1,3.65,1.66
[F][Sn]([F])([c]1ccccc1)[c]1ccccc1,3.85,1.99
N#CC(C(=O)CCC(=O)Nc1cccc(C(F)(F)F)c1)c1ccc(Cl)cc1 (stereo not given),> 100,–
Cc1cc(C(C)(C)C)cc(Cc2cc(C(C)(C)C)cc(Cc3cc(C(C)(C)C)cc(C)c3O)c2O)c1O,29.4,–
COC(=O)/C(=C\c1ccc(N(CCC#N)CCC#N)cc1)NC(=O)c1cc([N+](=O)[O-])ccc1Cl,> 100,–
COC1=C(Br)C(=O)c2nc(C)ccc2C1=O,34.7,–
O=C(CSC(c1ccccc1)c1ccccc1)N/N=C/c1ccco1,12.5,2.4
COc1ccc2c3c(Nc4ccc(/C(C)=N/O)cc4)[nH]c4ccccc4c-3c(N=O)c2c1,38.9,9.11

Structure (SMILES),TGI [µM],GI50 [µM]
N.N.NCCCCCCCCCN.O=C([O-])CC(=O)[O-].O=C([O-])CC(=O)[O-].[Pt+4].[Pt+4],> 100,> 100
CCN(CC)c1cc2oc3cc(N)cc(=N)c-3nc2cc1C,5.19,1.85
CC(=O)OC1C2CCC1C1C2C2(Cl)C(Cl)=C(Cl)C1(Cl)C2(Cl)Cl (stereo not given),23.7,–
CC(C(=O)n1c2ccccc2c2ccccc21)N(c1ccccc1)c1ccccc1 (stereo not given),37.1,–
CCCCc1c2c(nc3c1CCC/C3=C\c1ccccc1)/C(=C/c1ccccc1)CCC2,> 100,–
CC(C)(C)OC(=O)N1N=NC2C1C1CC(OCc3ccccc3)(OCc3ccccc3)C2O1 (stereo not given),> 100,–
O=C1CSC(c2ccc(-c3nc4ccccc4s3)cc2)=N1,> 100,20.9
O=C1C(=O)N(c2cc(Cl)ccc2Cl)C(=O)C(=O)C1c1nc2ccccc2o1,> 100,–
O=C(O)C12CC3(C(=O)O)CC(C(=O)O)(CC(C(=O)O)(C1)C3=O)C2=O,> 100,–
C[C@H]1CCC/C=C/[C@@H]2C[C@H](O)C[C@H]2[C@H](O)[C@@H](SCC(O)CO)CC(=O)O1 (stereo not given in full),> 100,43.8
O=S1(=O)OCCOS(=O)(=O)C1Cl,> 100,–
COc1cc(C2C(C(=O)Nc3cc(F)c(F)cc3F)=C(C)NC(C)=C2C(=O)Nc2cc(F)c(F)cc2F)ccc1O,55.3,–
Nc1ccc2nc3n(c2c1)C(=O)c1ccccc1-3,> 100,–
CCOc1ccccc1NC(=O)C(=O)Cc1nc2ccccc2s1,> 100,–
CO/N=C(/C)c1cccc(Nc2cc(-c3ccccc3)nc3ccc(OC)cc23)c1,21.1,3.82
Cc1cccc(N=C2NC(=O)C(CC(=O)Nc3cccc(C)c3C)S2)c1 (stereo not given),> 100,–
CN(C)CCSc1nccc(-c2cc3ccccc3s2)n1,31,–
